Source: ChEMBL document CHEMBL5136985, “Natural and synthetic β-carboline as a privileged antifungal scaﬀolds” (Eur J Med Chem, 2022)
Converted amounts (≈) assume the structure as drawn.

Experiments:
Alternaria alternata = assay: Antifungal activity against Alternaria alternata; format: functional
Cytospora mali = assay: Antifungal activity against Valsa mali; format: functional
Alternaria brassicae = assay: Antifungal activity against Alternaria brassicae; format: functional
[1] = tested on: Colletotrichum gloeosporioides; assay: Antifungal activity against Colletotrichum gloeosporioides; format: functional
Sclerotinia sclerotiorum = assay: Antifungal activity against Sclerotinia sclerotiorum; format: functional, organism-based
[2] = tested on: Trichophyton interdigitale; assay: Antifungal activity against Trichophyton interdigitale; format: functional
Alternaria solani = assay: Antifungal activity against Alternaria solani relative to control; format: functional; set-up: concentration or dose not given beside the values
Bipolaris maydis = assay: Antifungal activity against Bipolaris maydis relative to control; format: functional; set-up: concentration or dose not given beside the values
Fusarium solani [3] = assay: Antifungal activity against Fusarium solani; format: functional, organism-based
Aspergillus niger = assay: Antifungal activity against Aspergillus niger assessed as inhibition of growth rate at 100 ug/ml by disc diffusion method relative to control; format: functional
Bipolaris oryzae = assay: Antifungal activity against Helminthosporium oryzae assessed as inhibition of growth rate at 100 ug/ml by disc diffusion method relative to control; format: functional
Sclerotinia [4] = assay: Antifungal activity against rape Sclerotinia rot at 50 ug/ml relative to control; format: functional; settings: Sclerotinia
Gaeumannomyces graminis = assay: Antifungal activity against Gaeumannomyces graminis; format: functional, organism-based
Sclerotinia [5] = assay: Antifungal activity against sunflower Sclerotinia rot at 50 ug/ml relative to control; format: functional; settings: dose 50 µg/ml
Curvularia lunata = assay: Antifungal activity against Curvularia lunata; format: functional, organism-based
Fusarium solani [6] = assay: Antifungal activity against Fusarium solani incubated for 72 hrs; format: functional, organism-based; settings: for EC50: Fusarium solani, 72 h
Candida albicans [7] = assay: Antifungal activity against Candida albicans incubated for 72 hrs; format: functional
Saccharomyces cerevisiae = assay: Antifungal activity against Saccharomyces cerevisiae; format: functional
Phytophthora litchii = assay: Antifungal activity against Phytophthora litchii assessed as inhibition of growth rate at 100 mg/L relative to control; format: functional
Candida albicans [8] = assay: Antifungal activity against Candida albicans incubated for 24 hrs by well diffusion method; format: functional
Metarhizium anisopliae = assay: Antifungal activity against Metarhizium anisopliae assessed as reduction of growth rate relative to control; format: functional; set-up: scale not given: the % may be the effect or the level left
Rhizoctonia solani = assay: Antifungal activity against Rhizoctonia solani; format: functional, organism-based

For O=C1[C@@H]2Cc3c([nH]c4ccccc34)C(c3ccccc3)N2C(=O)[C@@H]2CCCN12 (stereo partly drawn), the MIC (Alternaria alternata) was 12.5 µg/mL (≈ 33.7 µM), the MIC (Cytospora mali) was 12.5 µg/mL (≈ 33.7 µM) and the MIC (Alternaria brassicae) was 12.5 µg/mL (≈ 33.7 µM). For the same molecule, the MIC [1] was 12.5 µg/mL (≈ 33.7 µM).

Molecule CC(C)C1c2[nH]c3ccccc3c2C[C@H]2C(=O)N3CCC[C@H]3C(=O)N12 (stereo partly drawn) has an MIC (Alternaria alternata) of 12.5 µg/mL (≈ 37 µM), an MIC (Cytospora mali) of 12.5 µg/mL (≈ 37 µM) and an MIC (Alternaria brassicae) of 12.5 µg/mL (≈ 37 µM). The MIC [1] was 12.5 µg/mL (≈ 37 µM).

O=C(O)c1cc2c([nH]c3ccccc32)c(-c2ccc(Br)cc2)n1 gave an EC50 (Sclerotinia sclerotiorum) of 5.38 µM.

With O=C1[C@@H]2Cc3c([nH]c4ccccc34)C(c3ccc([N+](=O)[O-])cc3)N2C(=O)[C@@H]2CCCN12 (stereo partly drawn) the MIC (Alternaria alternata) was 12.5 µg/mL (≈ 30 µM), the MIC (Cytospora mali) was 12.5 µg/mL (≈ 30 µM) and the MIC (Alternaria brassicae) was 12.5 µg/mL (≈ 30 µM). For the same molecule, the MIC [1] was 6.25 µg/mL (≈ 15 µM).

Molecule COc1cc(C2c3[nH]c4ccccc4c3C[C@H]3C(=O)N4CCC[C@H]4C(=O)N23)ccc1O (stereo partly drawn) has an MIC (Alternaria alternata) of 12.5 µg/mL (≈ 29.9 µM), an MIC (Cytospora mali) of 6.25 µg/mL (≈ 15 µM) and an MIC (Alternaria brassicae) of 6.25 µg/mL (≈ 15 µM). The MIC [1] was 12.5 µg/mL (≈ 29.9 µM).

CCCCCCCCCCc1nccc2c1[nH]c1ccccc12 was tested, and the MIC [2] was 1.6 µg/mL (≈ 5.19 µM).

CC(C)[C@@H]1COC(c2nccc3c2[nH]c2ccccc23)=N1 gave an EC50 (Sclerotinia sclerotiorum) of 15.5 µM.

Cc1nccc2c1[nH]c1cc(OC(=O)C(C)(C)C)ccc12 showed an Activity (Alternaria solani) of 66.7% and an Activity (Bipolaris maydis) of 78.9%.

Cc1ccccc1[N+]1=Cc2c(c3ccccc3n2C)CC1 gave an EC50 (Fusarium solani [3]) of 2.35 µM.

CC[C@@H](C)[C@@H]1COC(c2nccc3c2[nH]c2ccccc23)=N1 was tested, and the EC50 (Sclerotinia sclerotiorum) was 17.7 µM.

With CCCCCCCCCc1nccc2c1[nH]c1ccccc12 the MIC [2] was 3.2 µg/mL (≈ 10.9 µM).

With CN(C)c1ccc(C2NCCc3c2[nH]c2ccccc32)cc1 (stereo not drawn) the inhibition at 100 µg/mL (Aspergillus niger) was 20.8% and the inhibition at 100 µg/mL (Bipolaris oryzae) was 21.6%.

Work on Cc1ccc2c(c1)c1c(n2C)C=[N+](c2ccccc2C)CC1 yielded an EC50 (Fusarium solani [3]) of 3.47 µM.

For CCn1c2ccccc2c2ccnc(-c3nc4ccccc4[nH]3)c21, the inhibition at 50 µg/mL (Sclerotinia [4]) was 92%.

Work on CC(C)(C)[C@@H]1COC(c2nccc3c2[nH]c2ccccc23)=N1 yielded an EC50 (Sclerotinia sclerotiorum) of 13 µM.

With CC(C)CCc1nccc2c1[nH]c1ccccc12 the MIC [2] was 50 µg/mL (≈ 210 µM).

Work on COc1ccc(C2c3[nH]c4ccccc4c3C[C@H]3C(=O)N4CCC[C@H]4C(=O)N23)cc1 (stereo partly drawn) yielded an MIC (Alternaria alternata) of 12.5 µg/mL (≈ 31.1 µM), an MIC (Cytospora mali) of 12.5 µg/mL (≈ 31.1 µM) and an MIC (Alternaria brassicae) of 12.5 µg/mL (≈ 31.1 µM). It also gave an MIC [1] of 6.25 µg/mL (≈ 15.6 µM).

NC(=O)c1cc2c([nH]c3ccccc32)c(-c2ccccn2)n1 showed an EC50 (Gaeumannomyces graminis) of 2.85 µM.

For Cc1nccc2c3ccccc3n(Cc3cn(-c4ccccc4)nn3)c12, the Activity (Sclerotinia [5]) was 85.04%.

With COC(=O)c1cc2c([nH]c3ccccc32)c(C(=O)OC)n1 the EC50 (Gaeumannomyces graminis) was 1.16 µM.

Cc1ccc([N+]2=Cc3c(c4ccccc4n3C)CC2)cc1 showed an EC50 (Fusarium solani [3]) of 2.47 µM.

CC[C@@H]1COC(c2nccc3c2[nH]c2ccccc23)=N1 showed an EC50 (Sclerotinia sclerotiorum) of 22.4 µM.

Work on Cc1nccc2c3ccccc3n(Cc3cn(-c4cc(F)c(F)c(F)c4)nn3)c12 yielded an Activity (Sclerotinia [5]) of 85.98%.

CCCCCn1c2ccccc2c2cc(C)ncc21 showed an EC50 (Curvularia lunata) of 13.8 µg/mL (≈ 54.7 µM).

For CCCCCCCCc1nccc2c1[nH]c1ccccc12, the MIC [2] was 3.2 µg/mL (≈ 11.4 µM).

Molecule CO/C=C(/C(=O)OC)c1ccccc1Oc1cc(Oc2ccccc2C#N)ncn1 [AZOXYSTROBIN] has an Activity (Sclerotinia [5]) of 88.07% and an inhibition at 50 µg/mL (Sclerotinia [4]) of 88.5%.

Work on O=C(Nc1ccccc1-c1ccc(Cl)cc1)c1cccnc1Cl [BOSCALID] yielded an EC50 (Sclerotinia sclerotiorum) of 0.9 µM.

In the case of COC(=O)Nc1nc2ccccc2[nH]1 [CARBENDAZIM], the EC50 (Fusarium solani [6]) is reported as 4.34 µM and the Activity (Sclerotinia [5]) is reported as 89.77%.

N#Cc1c(Cl)c(Cl)c(Cl)c(C#N)c1Cl [CHLOROTHALONIL] gave an Activity (Alternaria solani) of 73.3% and an Activity (Bipolaris maydis) of 91.3%.

COC1=CC(=O)C[C@@H](C)[C@]12Oc1c(Cl)c(OC)cc(OC)c1C2=O [GRISEOFULVIN] showed an inhibition at 100 µg/mL (Aspergillus niger) of 20.3% and an inhibition at 100 µg/mL (Bipolaris oryzae) of 20.4%.

COc1ccc2c3c([nH]c2c1)C(C)=NCC3 [HARMALINE] was tested, and the MIC (Candida albicans [7]) was 666 µg/mL (≈ 3110 µM).

CC1=NCCc2c1[nH]c1cc(O)ccc21 [HARMALOL] showed an MIC (Candida albicans [7]) of 750 µg/mL (≈ 3750 µM).

In the case of Cc1nc(C(=O)O)cc2c1[nH]c1ccccc12 [HARMAN-3-CARBOXYLIC ACID], the Activity (Alternaria solani) is reported as 33.3% and the Activity (Bipolaris maydis) is reported as 21.1%.

Cc1nccc2c1[nH]c1ccccc12 [HARMAN] gave an MIC [2] of 200 µg/mL (≈ 1100 µM), an Activity (Alternaria solani) of 68.4% and an Activity (Bipolaris maydis) of 36.4%.

COc1ccc2c(c1)[nH]c1c(C)nccc12 [HARMINE] gave an Activity (Alternaria solani) of 15.7%, an Activity (Bipolaris maydis) of 22.7% and an MIC (Candida albicans [7]) of 500 µg/mL (≈ 2360 µM).

Molecule CC(=O)N1CCN(c2ccc(OCC3COC(Cn4ccnc4)(c4ccc(Cl)cc4Cl)O3)cc2)CC1 (stereo not drawn) [KETOCONAZOLE] has an MIC (Alternaria alternata) of 12.5 µg/mL (≈ 23.5 µM), an MIC (Saccharomyces cerevisiae) of 2.5 µg/mL (≈ 4.7 µM) and an MIC (Cytospora mali) of 12.5 µg/mL (≈ 23.5 µM). The MIC (Alternaria brassicae) was 12.5 µg/mL (≈ 23.5 µM) and the MIC [1] was 12.5 µg/mL (≈ 23.5 µM).

COCC(=O)N(c1c(C)cccc1C)C(C)C(=O)OC (stereo not drawn) [METALAXYL] was tested, and the inhibition at 100 µg/mL (Phytophthora litchii) was 93.4%.

Clc1ccc(COC(Cn2ccnc2)c2ccc(Cl)cc2Cl)c(Cl)c1 (stereo not drawn) [MICONAZOLE] showed an MIC (Candida albicans [8]) of 7.8 µg/mL (≈ 18.7 µM).

In the case of c1ccc2c(c1)[nH]c1cnccc12 [NORHARMANE], the MIC [2] is reported as 100 µg/mL (≈ 595 µM) and the Activity (Metarhizium anisopliae) is reported as 11.9%.

For c1ccc2[nH]c(-c3cscn3)nc2c1 [THIABENDAZOLE], the EC50 (Fusarium solani [6]) was 12.5 µM and the “inhibition (INH)” value (Fusarium solani [6]; time 72 hrs) was 89.3%.

Molecule OCC1=C[C@H](N[C@H]2C[C@H](CO)[C@@H](O[C@@H]3O[C@H](CO)[C@@H](O)[C@H](O)[C@H]3O)[C@H](O)[C@H]2O)[C@H](O)[C@@H](O)[C@@H]1O [VALIDAMYCIN] has an EC50 (Rhizoctonia solani) of 198 µg/mL (≈ 397 µM).
